Assay results reported in patent publication US6787342B2, “Paste formulations” (Merial Limited, priority 2000, dated 2004).

What was measured:
[1] = test system: Cooperia onocophora and Nematodirus; conditions: against Cooperia onocophora and Nematodirus; cited from earlier work
[2] = Carr Index (compressibility/flowability) of unmilled polymorphic forms; type: physicochemical
From the text: After crystallization and before micronization, the Carr Index of B form is lower than 10 (in %). The Can Index CI is defined as [formula] where P is the packed bulk density (g cm^−3), L is the loose bulk density (g cm 3). CI is also known as a compressibility index. A low figure for Cl corresponds to a high degree of flowability. The Carr Index way be calculated from Mercury Intrusion Porosimetry or measured by Tap-Tap.

[3] = Thermodynamic stability of polymorphic forms (DSC, Burger's rule); type: physicochemical; conditions: monotropic system
From the text: When heated, form A transforms to form B depending on the heating rate.
Therefore, the transition A→B is under kinetic control as usual in case of polymorphism. The transition from A to B may also be followed by XRay under heating (FIG. 12).

Compound	ivermectin plasma level required for efficacy [1] [ng/mL]	Carr Index ([2]; after crystallization and before micronization)	flow characteristics ([2]; compared with Polymorph A)	thermodynamic stability of polymorphic form [3]	thermodynamic stability of polymorphic form ([3]; listed as B form)
22,23-dihydro avermectin Bla/Blb [ivermectin]	3 to 4				
CC1(C)OC(=O)C(OCC2CC2)=C1c1ccc(S(C)(=O)=O)cc1 [Polymorph B, 3-(cyclopropylmethoxy)-4-[4-(methylsulfonyl)phenyl]-5,5-dimethyl-5H-furan-2-one]		lower than 10%	better flow characteristics than Polymorph A	thermodynamically more stable than Polymorph A	the most stable form
